± gives the uncertainty stated by the source.
Test: xn = mol fraction of the nth substance listed

CCCCCCCCOS(=O)(=O)[O-].CC[n+]1ccn(C)c1 + O
101 kPa, frequency 0.0005 MHz
Details	electrical conductivity [S/m]
263.15 K, x2 = 0.8103	0.26 ± 0.016
288.15 K, x2 = 0.7822	0.678 ± 0.041
298.15 K, x2 = 0.8236	1.14 ± 0.069
303.15 K, x2 = 0.8236	1.32 ± 0.08
303.15 K, x2 = 0.8384	1.52 ± 0.092
313.15 K, x2 = 0.8103	1.65 ± 0.099
323.15 K, x2 = 0.8236	2.2 ± 0.13
333.15 K, x2 = 0.7822	2.4 ± 0.14
333.15 K, x2 = 0.8236	2.77 ± 0.17
343.15 K, x2 = 0.7822	2.9 ± 0.17

101 kPa
Details	viscosity [mPa·s]
298.15 K, x2 = 0.8236	63.5 ± 1.4
303.15 K, x2 = 0.8236	48.9 ± 1.1
303.15 K, x2 = 0.8384	46 ± 1
313.15 K, x2 = 0.8103	32.07 ± 0.71
333.15 K, x2 = 0.7822	15.7 ± 0.35
343.15 K, x2 = 0.7822	11.31 ± 0.25

NCCO + CCCC[n+]1ccn(C)c1.O=[N+]([O-])[O-] + O
Details	viscosity [mPa·s]
313 K, 100 kPa, x2 = 0, x3 = 0.8878	1.963 ± 0.05

CCCCCCCC(=O)[O-].c1c[nH+]c[nH]1 + CCCCCCCCO
101.3 kPa
Details	viscosity [mPa·s]
293.15 K, x2 = 0.4	39.42 ± 0.91
293.15 K, x2 = 0.6005	24 ± 0.56
298.15 K, x2 = 0.4	33.3 ± 0.77
298.15 K, x2 = 0.5007	25.9 ± 0.61
298.15 K, x2 = 0.6005	20.3 ± 0.48
298.15 K, x2 = 0.8997	9.1 ± 0.23
303.15 K, x2 = 0.6005	17.2 ± 0.41
308.15 K, x2 = 0.1011	40.69 ± 0.96
308.15 K, x2 = 0.6999	11.72 ± 0.29
313.15 K, x2 = 0.6005	12.3 ± 0.31
318.15 K, x2 = 0.1011	27.68 ± 0.65
318.15 K, x2 = 0.799	6.7 ± 0.18
318.15 K, x2 = 0.8997	5.38 ± 0.15
323.15 K, x2 = 0.1011	22.9 ± 0.55
323.15 K, x2 = 0.2991	17.1 ± 0.41
323.15 K, x2 = 0.8997	4.82 ± 0.14

OC[C@H]1O[C@@H](O[C@H]2[C@H](O)[C@@H](O)C(O)O[C@@H]2CO)[C@H](O)[C@@H](O)[C@@H]1O (stereo partly drawn) + CC(=O)[O-].CC[n+]1ccn(C)c1
100 kPa
Details	viscosity [mPa·s]
292.4 K, x1 = 0.0255	339 ± 25
302.1 K, x1 = 0.08067	921 ± 78
312.5 K, x1 = 0.004998	61 ± 4
312.5 K, x1 = 0.01515	73 ± 5
322.6 K, x1 = 0.01515	45 ± 3
322.6 K, x1 = 0.08067	207 ± 14
332.2 K, x1 = 0.0255	39 ± 2
332.2 K, x1 = 0.08067	123 ± 8
342.5 K, x1 = 0.004998	20 ± 1

Cn1ccnc1 + CC(=O)[O-].CC[n+]1ccn(C)c1 + CCOC(C)=O
298.15 K, 101 kPa
Details	electrical conductivity [S/m]	viscosity [mPa·s]
x2 = 0, x1 = 0.5	–	0.93 ± 0.02
x2 = 0.09996, x1 = 0.45	0.259 ± 0.005	1.32 ± 0.03
x2 = 0.2001, x1 = 0.4	0.444 ± 0.009	2.05 ± 0.05
x2 = 0.3, x1 = 0.35	0.61 ± 0.012	3.17 ± 0.07
x2 = 0.3995, x1 = 0.3003	0.724 ± 0.014	5.06 ± 0.11
x2 = 0.5003, x1 = 0.2498	0.795 ± 0.016	7.59 ± 0.17
x2 = 0.598, x1 = 0.201	0.776 ± 0.016	12.8 ± 0.3
x2 = 0.7028, x1 = 0.1486	0.697 ± 0.014	21.4 ± 0.5
x2 = 0.8002, x1 = 0.09992	0.578 ± 0.012	37.1 ± 1
x2 = 0.8978, x1 = 0.0511	0.452 ± 0.009	67.4 ± 2.2

CCCCCC[n+]1ccn(C)c1.O=S(=O)([N-]S(=O)(=O)C(F)(F)F)C(F)(F)F + CN(CCO)CCO
101 kPa
Details	viscosity [mPa·s]
303.15 K, x2 = 0	58.3 ± 2
303.15 K, x2 = 0.801	49.3 ± 2.5
308.15 K, x2 = 0.0989	45.6 ± 2.3
308.15 K, x2 = 0.3999	34 ± 1.7
313.15 K, x2 = 0.3999	31.4 ± 1.6
313.15 K, x2 = 0.6075	30 ± 1.5
313.15 K, x2 = 0.899	36.2 ± 1.9
318.15 K, x2 = 0.7049	25.3 ± 1.3
323.15 K, x2 = 0.2977	24.1 ± 1.2
323.15 K, x2 = 0.7049	22.9 ± 1.2

CCCCCCCCn1cc[n+](C)c1C.F[P-](F)(F)(F)(F)F + CCCCCCCC[n+]1ccn(C)c1.F[P-](F)(F)(F)(F)F
100 kPa, x2 = 0.5
Details	viscosity [mPa·s]
333.15 K	90.3 ± 7.1
343.15 K	60.9 ± 1.7
353.15 K	44.5 ± 1.5

NC=O + CCCC[n+]1ccn(C)c1.F[B-](F)(F)F
101 kPa
Details	viscosity [mPa·s]
293.15 K, x2 = 0	3.66 ± 0.11
293.15 K, x2 = 0.2758	10.51 ± 0.33
293.15 K, x2 = 0.3629	16.75 ± 0.53
293.15 K, x2 = 0.5095	31.8 ± 1
293.15 K, x2 = 0.569	39.6 ± 1.3
298.15 K, x2 = 0.2758	9.47 ± 0.3
298.15 K, x2 = 0.7588	56.7 ± 1.8
298.15 K, x2 = 0.8107	64.8 ± 2.1
303.15 K, x2 = 0.4499	17.48 ± 0.55
303.15 K, x2 = 0.8107	50.9 ± 1.6
303.15 K, x2 = 0.8626	57.3 ± 1.8
303.15 K, x2 = 0.9313	66.4 ± 2.2
308.15 K, x2 = 0.2758	7.5 ± 0.23
308.15 K, x2 = 0.4499	14.74 ± 0.47
308.15 K, x2 = 0.9313	51.2 ± 1.6
313.15 K, x2 = 0.2054	4.61 ± 0.14
313.15 K, x2 = 0.3629	8.75 ± 0.28
313.15 K, x2 = 0.4499	11.81 ± 0.37
318.15 K, x2 = 0.2758	5.08 ± 0.16
318.15 K, x2 = 0.569	14.1 ± 0.45
318.15 K, x2 = 0.6639	18.31 ± 0.58
318.15 K, x2 = 0.8626	29.35 ± 0.94

CCCCCC[n+]1ccn(C)c1.O=S(=O)([N-]S(=O)(=O)C(F)(F)F)C(F)(F)F + CC(C)O
viscosity [mPa·s], 100 kPa
Details	x2 = 0	x2 = 0.0845	x2 = 0.2111	x2 = 0.3269	x2 = 0.4529	x2 = 0.5435	x2 = 0.637	x2 = 0.7321	x2 = 0.8285	x2 = 0.9173
293.15 K	85.2 ± 8.6	73.5 ± 7.4	57 ± 5.7	42.3 ± 4.3	29.9 ± 3	22.4 ± 2.2	16.2 ± 1.6	12 ± 1.2	8.01 ± 0.81	4.5 ± 0.46
298.15 K	65.9 ± 6.6	56.6 ± 5.7	44.5 ± 4.5	34.1 ± 3.4	24.2 ± 2.4	18.8 ± 1.9	13.6 ± 1.4	9.86 ± 0.99	6.52 ± 0.66	3.73 ± 0.38
303.15 K	51.9 ± 5.2	45 ± 4.5	36.5 ± 3.7	28.6 ± 2.9	20.2 ± 2	15.6 ± 1.6	11.4 ± 1.1	8.26 ± 0.83	5.51 ± 0.56	3.24 ± 0.33
308.15 K	41.4 ± 4.2	36 ± 3.6	30.5 ± 3.1	24.1 ± 2.4	17.2 ± 1.7	13.2 ± 1.3	9.62 ± 0.97	7.11 ± 0.71	4.67 ± 0.47	2.82 ± 0.29
313.15 K	33.8 ± 3.4	30.5 ± 3.1	25.6 ± 2.6	20.6 ± 2.1	14.9 ± 1.5	11.3 ± 1.1	8.31 ± 0.84	6.06 ± 0.61	3.98 ± 0.4	2.41 ± 0.24

CC1=CCC(C(C)C)=CC1 + CCCCCCCC[N+](CCCCCCCC)(CCCCCCCC)CCCCCCCC.[Br-] + [Cl-].[Cl-].[Co+2]
Details	viscosity [mPa·s]
296.1 K, 101.3 kPa, x2 = 0.4, x3 = 0.2	120000

CCCCCC[n+]1ccn(C)c1.O=S(=O)([N-]S(=O)(=O)C(F)(F)F)C(F)(F)F + C1CCOC1
298.15 K, 100 kPa
Details	electrical conductivity [S/m]
x1 = 0.0649	0.9 ± 0.1
x1 = 0.09702	1.1 ± 0.1
x1 = 0.1393	1 ± 0.1
x1 = 0.194	1.3 ± 0.1
x1 = 0.2742	0.9 ± 0.1

CC[n+]1ccn(C)c1.COS(=O)(=O)[O-] + CN1CCCC1=O
101 kPa
Details	viscosity [mPa·s]
298.15 K, x2 = 0.8502	4.99 ± 0.79
303.15 K, x2 = 0.3825	28 ± 4
303.15 K, x2 = 0.5291	17.6 ± 2.6
303.15 K, x2 = 0.9298	2.91 ± 0.5
308.15 K, x1 = 0.0115	1.52 ± 0.31
308.15 K, x2 = 0.6518	9.5 ± 1.4
308.15 K, x2 = 0.718	6.8 ± 1
313.15 K, x2 = 0.0861	38.1 ± 5.4

NCC(O)CN + CC[n+]1ccn(C)c1.[Cl-]
101 kPa, x2 = 0.667
Details	viscosity [mPa·s]
298.15 K	280 ± 14
303.15 K	200.3 ± 9.6
313.15 K	108.2 ± 4.8
323.15 K	58.3 ± 2.5
333.15 K	38.3 ± 1.6

CCCCCC[n+]1ccn(C)c1.O=S(=O)([N-]S(=O)(=O)C(F)(F)F)C(F)(F)F + O
Details	electrical conductivity [S/m]
295.15 K, 101 kPa, x2 = 0.233	0.29 ± 0.02

CCCCCCCC(=O)[O-].c1c[nH+]c[nH]1 + O
101.3 kPa
Details	viscosity [mPa·s]
293.15 K, x2 = 0.3042	53.53 ± 0.6
293.15 K, x2 = 0.4091	50.43 ± 0.41
293.15 K, x2 = 0.6017	39.83 ± 0.88
298.15 K, x2 = 0.5119	37.4 ± 0.86
298.15 K, x2 = 0.7995	18.69 ± 0.43
303.15 K, x2 = 0.3042	34.6 ± 0.81
303.15 K, x2 = 0.6643	24.26 ± 0.56
313.15 K, x2 = 0.1964	24.17 ± 0.57
313.15 K, x2 = 0.8154	10.93 ± 0.26
318.15 K, x2 = 0.0989	23.17 ± 0.54
318.15 K, x2 = 0.3042	19.22 ± 0.45
318.15 K, x2 = 0.6017	16.16 ± 0.38
318.15 K, x2 = 0.8154	9.92 ± 0.24
323.15 K, x2 = 0	25.33 ± 0.61
323.15 K, x2 = 0.0989	19.77 ± 0.46
323.15 K, x2 = 0.3042	16.85 ± 0.4
323.15 K, x2 = 0.8154	9.3 ± 0.23

— the CheMixHub ionic liquid set
